From publication PMC7247683, “Molecular Drug Discovery of Single Ginsenoside Compounds as a Potent Bruton’s Tyrosine Kinase Inhibitor” (International Journal of Molecular Sciences, 2020)
Where two headings read alike, the source gives them in different places.

How the values were obtained:
[1] = Solubility characterization in RPMI medium (absorbance at 540 nm, transparency); format: physicochemical; set-up: key to absorbance at 540 nm increased compared to the control / absorbance at 540 nm decreased compared to the control / absorbance at 540 nm reduced compared to the control: difference in OD at 540 nm vs untreated medium control
From the text: In spite of the promising pharmaceutical efficacies of the ginsenoside compounds, the therapeutic potential of ginsenosides is largely restricted by their lowering bioavailability when orally distributed (< 5%) due to their undesirable physicochemical properties, such as low water solubility, low biomembrane permeability, instability in the gastrointestinal fluid, and extensive body metabolism. Depending on the solubility of each candidate substance, the black text under the plate is clearly visible when dissolved well. Since UV/vis absorbance spectra-based turbidimetry has the advantage of being fast and non-destructive in common drug solubility tests, a determination of their turbidity or optical density (OD) in liquid cultures was employed to monitor the water-solubility of the ginsenoside candidates. The λmax of the UV/vis absorbance spectra of the ginsenoside compounds and their Roswell Park Memorial Institute (RPMI) medium were identical at 540 nm, and the difference in OD between the absorbances of the ginsenosides and the media, used only as a control, was plotted (Figure 4). The increased absorbance signals of the PPT and PPD were derived from the increased OD signal of turbidity-based interference by insoluble compounds in the medium. The corresponding UV/vis absorbance results of each candidate substance in the media is discussed as follows:
To determine the concentration of ginsenoside compounds to be treated on the cells, the solubility of each compound in RPMI-1640 medium was evaluated. Specifically, the solubility of each ginsenoside compound was observed by UV/vis absorbance at 540 nm, and the transparency of the medium was measured by the visually observed degree to which the marked black text at the bottom of the plate was visible (transparency of the medium). In addition, the change in absorbance at 540 nm compared to the control was measured by using the medium not treated with the ginsenoside compound as a control.

BTK [2] = target: T1, BTK (Homo sapiens, UniProt Q06187); test: Western blotting, p-BTK/BTK in Ramos cells; format: cell-based; conditions: α-IgM stimulated, stimulation (α-IgM antibody (+), DMSO) group as reference (100%)
T1 construct: host or cells: Ramos cells
T1 sequence (Q06187 whole entry): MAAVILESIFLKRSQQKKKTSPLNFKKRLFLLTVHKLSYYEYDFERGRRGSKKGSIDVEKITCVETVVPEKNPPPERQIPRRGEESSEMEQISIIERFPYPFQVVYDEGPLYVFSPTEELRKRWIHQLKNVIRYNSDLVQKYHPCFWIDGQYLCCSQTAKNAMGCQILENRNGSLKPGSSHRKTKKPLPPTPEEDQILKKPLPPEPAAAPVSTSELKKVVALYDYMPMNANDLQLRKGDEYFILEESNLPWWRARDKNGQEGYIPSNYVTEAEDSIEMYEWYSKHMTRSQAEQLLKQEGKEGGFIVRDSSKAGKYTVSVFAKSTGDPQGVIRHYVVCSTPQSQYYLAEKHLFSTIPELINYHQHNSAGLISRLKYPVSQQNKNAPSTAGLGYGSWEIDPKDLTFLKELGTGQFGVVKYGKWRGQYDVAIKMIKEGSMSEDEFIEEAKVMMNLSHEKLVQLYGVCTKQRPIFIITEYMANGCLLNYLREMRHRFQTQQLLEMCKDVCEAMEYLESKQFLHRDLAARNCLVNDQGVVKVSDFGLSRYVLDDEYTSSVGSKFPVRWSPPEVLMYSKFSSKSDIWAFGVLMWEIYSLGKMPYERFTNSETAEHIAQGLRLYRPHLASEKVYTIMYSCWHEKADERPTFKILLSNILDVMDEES
Experimental: The Ramos cells (~3 × 10^6) were famished of serum for 1 h and treated with ginsenosides for 1 h, and then washed with phosphate-buffered saline (Welgene, Korea), followed by stimulation with 1 μg/mL of goat F(ab’)2 anti-human IgM (Southern Biotech, Birmingham, AL, USA) for 10 min on ice. The cells were then lysed in a radioimmunoprecipitation assay (RIPA) buffer (Sigma-Aldrich, St. Louis, MO, USA) and the proteins were separated by SDS-PAGE (Bio-Rad Laboratories, Hercules, CA, USA) and transferred to polyvinylidene fluoride membranes (EMD Millipore, Billerica, MA, USA). The proteins were detected with anti-BTK Y223 (Cell Signaling Technology, Danvers, MA, USA), anti-BTK (53/BTK, Cell Signaling Technology) and anti-glyceraldehyde 3-phosphate dehydrogenase (anti-GAPDH) (Santa Cruz Biotechnology, Santa Cruz, CA, USA) antibodies. The protein signals were monitored by chemiluminescence using Enhanced ChemiLuminescence (ECL) western blotting detection reagent (EMD Millipore), and the scanned blots were quantified using a Multi-Image analyzer (Fujifilm, Japan). The phosphorylation % of each lane was determined using Multi-Gauge software (Fujifilm). The IC50 value was measured using control α-IgM+ set at 100% and control α-IgM− set at 0%.
The Ramos cells (~3 × 10^6) were cultured in 6-well cell culture plates. Both the control and ginsenoside compounds were dissolved in DMSO. For the Western blotting, the α-IgM- groups and α-IgM+ groups in the presence of DMSO were used as the non-stimulation control and stimulation control, respectively, following by the quantitation of the expression ratio of p-BTK, BTK, and β-tubulin. The expression level of each p-BTK and the expression level of BTK were compared and analyzed using the ratios (p-BTK/β-tubulin and BTK/β-tubulin) based on the expression level of each β-tubulin. Namely, the p-BTK/BTK ratio means the (p-BTK/β-tubulin)/(BTK/β-tubulin) ratio, which is simply expressed as p-BTK/BTK.

BTK [3] = target: T1, BTK; test: Cell-based phosphorylation ELISA, p-BTK/BTK in Ramos cells; conditions: for BTK inhibitory activity (p-BTK/BTK, ELISA), in words: compared to Ibrutinib or the DMSO-treated group
From the text: Although BTK is almost constant in cells, the expression level of p-BTK varies depending on the degree of BTK activation and inhibition, and thus the expression level of p-BTK is based on the expression of BTK (p-BTK/BTK).
When BTK is activated or inhibited, the phosphorylation % of BTK is increased or decreased accordingly, which can be confirmed by the amount of phosphorylated BTK in the cell. After treating the ginsenoside compound on the cells, the amount of BTK inhibition of the ginsenoside compound was compared and analyzed by the amount of phosphorylated BTK in the cell. […] The BTK to GAPDH expression ratio was confirmed.
The Ramos cells (~1 × 10^4) were cultured in 96-well cell culture plates. […] Free DMSO was used as a negative control group. […] The expression level of each p-BTK and the expression level of BTK were compared and analyzed using the ratios (p-BTK/GAPDH and BTK/GAPDH) based on the expression level of each […]. Namely, the p-BTK/BTK ratio means the (p-BTK/GAPDH)/(BTK/GAPDH) ratio, which is simply expressed as p-BTK/BTK.

purified BTK = purified BTK (Homo sapiens, UniProt Q06187); test: FRET-based kinase assay (Z'-LYTE) for BTK inhibition; format: biochemical; conditions: 0.625 μg/mL purified BTK; for BTK inhibitory effect (inhibition %): 25, 50, and 100 μg/mL, depending on the concentration; for IC50: FRET assay
purified BTK, sequence (Q06187 whole entry): as above
Experimental: For the identification of the BTK inhibitory activity of ginsenoside-derived candidate substances and the screening of them to show pharmacological efficacy, the BTK-inhibitory activity of ginsenoside compounds and their in vitro BTK inhibitory activity was measured as the inhibition rate (inhibition %) of the decreased phosphorylation rate compared to the BTK activity without ginsenoside treatment in a FRET assay.
In order to evaluate the BTK inhibitory activity of the ginsenoside compound, a kinase assay using a Z’-LYTE Kinase Assay Kit from Thermo Fisher Scientific was performed. A fluorescent microplate reader was used to measure the Fluorescence Resonance Energy Transfer (FRET) between coumarin and fluorescein dyes. The assay was optimized for BTK, as described in the manufacturer’s protocol. The BTK activity (%) was evaluated by measuring the ratio of the emission signal (445 nm/520 nm) according to the phosphorylation % of the substrate by BTK.

[4] = solubility-dependent concentration
[5] = read-out: IC50 levels that inhibited BTK activity

## CC(C)=CCCC(C)(O)C1CCC2(C)C1C(O)CC1C3(C)CCC(O)C(C)(C)C3CCC12C (stereo not drawn) [PPD, protopanaxadiol]
[1]
  appearance / solubility in the medium: turbid
  solubility in the medium, overall: poorly soluble in the medium at higher concentrations
[1]; 0.2 mM
  absorbance at 540 nm increased compared to the control: 0.155
[1]; 0.5 mM
  absorbance at 540 nm increased compared to the control: 0.442
[1]; 1 mM
  absorbance at 540 nm increased compared to the control: 0.835
[1]; 1.5 mM
  absorbance at 540 nm increased compared to the control: 1.153
BTK [2]
  BTK inhibitory activity (p-BTK/BTK, Western blotting): about 40%
BTK [3]; at low concentrations
  BTK inhibitory activity (p-BTK/BTK, ELISA): 9.58%
BTK [3]; [4]
  BTK inhibitory activity (p-BTK/BTK, ELISA), in words: substantial BTK inhibitory activity

## CC(C)=CCC[C@](C)(O)[C@H]1CC[C@]2(C)[C@@H]1[C@H](O)C[C@@H]1[C@@]3(C)CC[C@H](O)C(C)(C)[C@@H]3[C@@H](O)C[C@]12C [PPT, protopanaxatriol]
Purified BTK
  BTK inhibitory effect (inhibition %): ≥ 70%
Purified BTK; [5]
  IC50: 136 µM
[1]
  appearance / solubility in the medium: intensively turbid
  solubility in the medium, overall: poorly soluble in the medium at higher concentrations
[1]; 0.5 mM
  absorbance at 540 nm increased compared to the control: 0.309
[1]; 0.8 mM
  absorbance at 540 nm increased compared to the control: 0.508
[1]; 1.7 mM
  absorbance at 540 nm increased compared to the control: 1.118
BTK [2]
  BTK inhibitory activity (p-BTK/BTK, Western blotting): about 30%
BTK [3]; at low concentrations
  BTK inhibitory activity (p-BTK/BTK, ELISA): 15.98%
BTK [3]; [4]
  BTK inhibitory activity (p-BTK/BTK, ELISA), in words: substantial BTK inhibitory activity

## CC(C)=CCCC(C)(OC1OC(COC2OCC(O)C(O)C2O)C(O)C(O)C1O)C1CCC2(C)C1C(O)CC1C3(C)CCC(OC4OC(CO)C(O)C(O)C4OC4OC(CO)C(O)C(O)C4O)C(C)(C)C3CCC12C (stereo not drawn) [Rb2]
Purified BTK
  BTK inhibitory effect (inhibition %): ≥ 70%
Purified BTK; [5]
  IC50: 9.27 µM
[1]; 0.2 mM in RPMI medium
  absorbance at 540 nm increased compared to the control: 0.042
  appearance / solubility in the medium: transparent
[1]; 0.6 mM in RPMI medium
  absorbance at 540 nm decreased compared to the control: 0.007
[1]; 1.0 mM in RPMI medium
  absorbance at 540 nm decreased compared to the control: 0.006
[1]; RPMI medium
  solubility in the medium, overall: soluble in the medium at a high concentration
BTK [2]
  BTK inhibitory activity (p-BTK/BTK, Western blotting): ~ 17%
BTK [3]; [4]
  BTK inhibitory activity (p-BTK/BTK, ELISA): > 23%
  BTK inhibitory activity (p-BTK/BTK, ELISA), in words: substantial BTK inhibitory activity

## CC(C)=CCCC(C)(OC1OC(COC2OCC(O)C(O)C2O)C(O)C(O)C1O)C1CCC2(C)C1C(O)CC1C3(C)CCC(OC4OC(CO)C(O)C(O)C4OC4OC(CO)C(O)C(O)C4O)C(C)(C)C3CCC12C (stereo not drawn) [Rb3]
Purified BTK
  BTK inhibitory effect (inhibition %): ≥ 70%
Purified BTK; [5]
  IC50: 51 µM
[1]; 0.9 mM in RPMI medium
  absorbance at 540 nm increased compared to the control: 0.047
  appearance / solubility in the medium: transparent
[1]; 2.7 mM in RPMI medium
  absorbance at 540 nm reduced compared to the control: 0.004
[1]; RPMI medium
  solubility in the medium, overall: soluble in the medium at a high concentration
BTK [2]
  BTK inhibitory activity (p-BTK/BTK, Western blotting): ~ 17%
BTK [3]; [4]
  BTK inhibitory activity (p-BTK/BTK, ELISA): > 23%
  BTK inhibitory activity (p-BTK/BTK, ELISA), in words: substantial BTK inhibitory activity

## CC(C)=CCCC(C)(O)C1CCC2(C)C1C(O)CC1C3(C)CCC(OC4OC(CO)C(O)C(O)C4O)C(C)(C)C3CCC12C (stereo not drawn) [Rh2]
Purified BTK
  BTK inhibitory effect (inhibition %): ≥ 70%
Purified BTK; IC50 levels that inhibited BTK activity
  IC50: 61.1 µM
[1]; 0.4 mM in RPMI medium
  absorbance at 540 nm increased compared to the control: 0.037
[1]; 0.6 mM in RPMI medium
  absorbance at 540 nm increased compared to the control: 0.111
[1]; 1.2 mM in RPMI medium
  absorbance at 540 nm increased compared to the control: 0.271
  appearance / solubility in the medium: slightly soluble
[1]; RPMI medium
  solubility in the medium, overall: soluble in the medium at a low concentration, while insoluble at a high concentration
